According to ChEMBL document CHEMBL4308841, “Synthesis, in vitro antiproliferative activity, and kinase inhibitory effects of pyrazole-containing diarylureas and diarylamides” (Eur J Med Chem, 2018):

Key:
IGROV-1 = assay: Growth inhibition of human IGROV1 cells incubated for 48 hrs by sulforhodamine B assay; format: functional, cell-based; details: IGROV-1, 48 h
OVCAR-8 = assay: Growth inhibition of human OVCAR8 cells assessed as cell growth at 100 uM incubated for 48 hrs by sulforhodamine B assay relative to control; format: functional; details: OVCAR-8, 48 h, read-out: Activity
SK-MEL-2 = assay: Growth inhibition of human SK-MEL-2 cells assessed as cell growth at 0.1 uM incubated for 48 hrs by sulforhodamine B assay relative to control; format: functional; details: SK-MEL-2, 48 h, read-out: Activity
SN12C = assay: Growth inhibition of human SN12C cells incubated for 48 hrs by sulforhodamine B assay; format: functional, cell-based
COLO 205 [1] = assay: Growth inhibition of human COLO205 cells incubated for 48 hrs by sulforhodamine B assay; format: functional, cell-based; details: COLO 205, 48 h
ACHN = assay: Growth inhibition of human ACHN cells assessed as cell growth at 1 uM incubated for 48 hrs by sulforhodamine B assay relative to control; format: functional; details: read-out: Activity
OVCAR-3 = assay: Growth inhibition of human OVCAR3 cells assessed as cell growth at 1 uM incubated for 48 hrs by sulforhodamine B assay relative to control; format: functional; details: OVCAR-3, 48 h, read-out: Activity
NCI-H522 = assay: Growth inhibition of human NCI-H522 cells assessed as cell growth at 1 uM incubated for 48 hrs by sulforhodamine B assay relative to control; format: functional; details: NCI-H522, 48 h, read-out: Activity
Malme-3M [2] = assay: Growth inhibition of human MALME-3M cells assessed as cell growth at 0.01 uM incubated for 48 hrs by sulforhodamine B assay relative to control; format: functional; details: read-out: Activity
MDA-MB-231 [3] = assay: Growth inhibition of human MDA-MB-231 cells assessed as cell growth at 0.01 uM incubated for 48 hrs by sulforhodamine B assay relative to control; format: functional; details: MDA-MB-231, 48 h, read-out: Activity
RPMI-8226 = assay: Growth inhibition of human RPMI8226 cells assessed as cell growth at 100 uM incubated for 48 hrs by sulforhodamine B assay relative to control; format: functional; details: RPMI-8226, 48 h, read-out: Activity
A498 = assay: Growth inhibition of human A498 cells assessed as cell growth at 0.01 uM incubated for 48 hrs by sulforhodamine B assay relative to control; format: functional; details: A498, 48 h, read-out: Activity
NCI-H460 = assay: Growth inhibition of human NCI-H460 cells assessed as cell growth at 1 uM incubated for 48 hrs by sulforhodamine B assay relative to control; format: functional; details: NCI-H460, 48 h, read-out: Activity
T47D = assay: Growth inhibition of human T47D cells assessed as cell growth at 0.1 uM incubated for 48 hrs by sulforhodamine B assay relative to control; format: functional; details: read-out: Activity
NCI-H226 = assay: Growth inhibition of human NCI-H226 cells assessed as cell growth at 1 uM incubated for 48 hrs by sulforhodamine B assay relative to control; format: functional; details: NCI-H226, 48 h, read-out: Activity
Malme-3M [4] = assay: Growth inhibition of human MALME-3M cells assessed as cell growth at 0.1 uM incubated for 48 hrs by sulforhodamine B assay relative to control; format: functional; details: read-out: Activity
SF-295 [5] = assay: Growth inhibition of human SF295 cells assessed as cell growth at 100 uM incubated for 48 hrs by sulforhodamine B assay relative to control; format: functional; details: SF-295, 48 h, read-out: Activity
NCI/ADR-RES = assay: Growth inhibition of human NCI/ADR-RES cells assessed as cell growth at 1 uM incubated for 48 hrs by sulforhodamine B assay relative to control; format: functional; details: read-out: Activity
SR = assay: Growth inhibition of human SR cells assessed as cell growth at 100 uM incubated for 48 hrs by sulforhodamine B assay relative to control; format: functional; details: read-out: Activity
MOLT-4 = assay: Growth inhibition of human MOLT4 cells assessed as cell growth at 1 uM incubated for 48 hrs by sulforhodamine B assay relative to control; format: functional; details: MOLT-4, 48 h, read-out: Activity
OVCAR-5 [6] = assay: Growth inhibition of human OVCAR5 cells assessed as cell growth at 100 uM incubated for 48 hrs by sulforhodamine B assay relative to control; format: functional; details: OVCAR-5, 48 h, read-out: Activity
COLO 205 [7] = assay: Growth inhibition of human COLO205 cells assessed as cell growth at 100 uM incubated for 48 hrs by sulforhodamine B assay relative to control; format: functional; details: COLO 205, 48 h, read-out: Activity
SNB-75 = assay: Growth inhibition of human SNB75 cells incubated for 48 hrs by sulforhodamine B assay; format: functional, cell-based; details: SNB-75, 48 h
SF-295 [8] = assay: Growth inhibition of human SF295 cells incubated for 48 hrs by sulforhodamine B assay; format: functional, cell-based; details: SF-295, 48 h
OVCAR-5 [9] = assay: Growth inhibition of human OVCAR5 cells incubated for 48 hrs by sulforhodamine B assay; format: functional, cell-based; details: OVCAR-5, 48 h
UACC-257 [10] = assay: Growth inhibition of human UACC257 cells assessed as cell growth at 0.1 uM incubated for 48 hrs by sulforhodamine B assay relative to control; format: functional; details: UACC-257, 48 h, read-out: Activity
UACC-257 [11] = assay: Growth inhibition of human UACC257 cells assessed as cell growth at 0.01 uM incubated for 48 hrs by sulforhodamine B assay relative to control; format: functional; details: UACC-257, 48 h, read-out: Activity
HCT-15 = assay: Growth inhibition of human HCT15 cells assessed as cell growth at 100 uM incubated for 48 hrs by sulforhodamine B assay relative to control; format: functional; details: HCT-15, 48 h, read-out: Activity
MDA-MB-231 [12] = assay: Growth inhibition of human MDA-MB-231 cells assessed as cell growth at 0.1 uM incubated for 48 hrs by sulforhodamine B assay relative to control; format: functional; details: MDA-MB-231, 48 h, read-out: Activity
CAKI-1 = assay: Growth inhibition of human Caki1 cells assessed as cell growth at 100 uM incubated for 48 hrs by sulforhodamine B assay relative to control; format: functional; details: CAKI-1, 48 h, read-out: Activity
[13] = read-out: LC50 (the source's name)
[14] = read-out: pLC50 (the source's name) (converted)

SMILES: O=C(Nc1cccc(-n2cc(-c3ccncc3)c(-c3cc(O)cc(Cl)c3)n2)c1)Nc1ccc(Cl)c(Cl)c1
- GI50 (IGROV-1; read-out: GI50): 2.56 µM
- CC50 (IGROV-1; [13]): > 100 µM
- TGI (IGROV-1; read-out: TGI): 92.3 µM
- GI50 (IGROV-1; read-out: pGI50 (converted)): 2.88 µM
- CC50 (IGROV-1; [14]): > 100 µM
- TGI (IGROV-1; read-out: pTGI (converted)): 9.33 µM
- growth at 100 µM (OVCAR-8): -38%
- growth at 0.1 µM (SK-MEL-2): 96%
- GI50 (SN12C; read-out: GI50): 2.78 µM
- LC50 (SN12C; read-out: LC50): > 100 µM
- TGI (SN12C; read-out: TGI): 10.1 µM
- GI50 (SN12C; read-out: pGI50 (converted)): 2.75 µM
- LC50 (SN12C; read-out: pLC50 (converted)): > 100 µM
- TGI (SN12C; read-out: pTGI (converted)): 18.2 µM
- GI50 (COLO 205 [1]; read-out: GI50): 1.96 µM
- CC50 (COLO 205 [1]; [13]): 7.29 µM
- TGI (COLO 205 [1]; read-out: TGI): 37.8 µM
- GI50 (COLO 205 [1]; read-out: pGI50 (converted)): 1.95 µM
- CC50 (COLO 205 [1]; [14]): 7.24 µM
- TGI (COLO 205 [1]; read-out: pTGI (converted)): 3.8 µM
- growth at 1 µM (ACHN): 79%
- growth at 1 µM (OVCAR-3): 85%
- growth at 1 µM (NCI-H522): 54%
- growth at 0.01 µM (Malme-3M [2]): 57%
- growth at 0.01 µM (MDA-MB-231 [3]): 94%
- growth at 100 µM (RPMI-8226): -27%
- growth at 0.01 µM (A498): 57%
- growth at 1 µM (NCI-H460): 58%
- growth at 0.1 µM (T47D): 88%
- growth at 1 µM (NCI-H226): 96%
- growth at 0.1 µM (Malme-3M [4]): 84%
- growth at 100 µM (SF-295 [5]): -58%
- growth at 1 µM (NCI/ADR-RES): 90%
- growth at 100 µM (SR): -30%
- growth at 1 µM (MOLT-4): 84%
- growth at 100 µM (OVCAR-5 [6]): -80%
- growth at 100 µM (COLO 205 [7]): -88%
- GI50 (SNB-75; read-out: GI50): 1.38 µM
- CC50 (SNB-75; [13]): > 100 µM
- TGI (SNB-75; read-out: TGI): 48.2 µM
- GI50 (SNB-75; read-out: pGI50 (converted)): 1.38 µM
- CC50 (SNB-75; [14]): > 100 µM
- TGI (SNB-75; read-out: pTGI (converted)): 4.79 µM
- GI50 (SF-295 [8]; read-out: GI50): 1.7 µM
- CC50 (SF-295 [8]; [13]): 4.4 µM
- TGI (SF-295 [8]; read-out: TGI): 45 µM
- GI50 (SF-295 [8]; read-out: pGI50 (converted)): 1.7 µM
- CC50 (SF-295 [8]; [14]): 43.7 µM
- TGI (SF-295 [8]; read-out: pTGI (converted)): 4.57 µM
- GI50 (OVCAR-5 [9]; read-out: GI50): 2.14 µM
- CC50 (OVCAR-5 [9]; [13]): 5.42 µM
- TGI (OVCAR-5 [9]; read-out: TGI): 51.6 µM
- GI50 (OVCAR-5 [9]; read-out: pGI50 (converted)): 2.14 µM
- CC50 (OVCAR-5 [9]; [14]): 53.7 µM
- TGI (OVCAR-5 [9]; read-out: pTGI (converted)): 6.17 µM
- growth at 0.1 µM (UACC-257 [10]): 91%
- growth at 0.01 µM (UACC-257 [11]): 96%
- growth at 100 µM (HCT-15): -23%
- growth at 0.1 µM (MDA-MB-231 [12]): 85%
- growth at 100 µM (CAKI-1): -12%
